The nature of assay [1]: Hair deformability: stress vs strain of bending individual hairs before and after treatment. Particulars: FIG. 1. From the text:
Methodology for Determination of Stress vs Strain Relationship (Stiffness) The distensibility (i.e, elasticity, rigidity, shear, tensile strength, compression, etc.) of hair, nails, tendons, etc. may be determined using widely available commercial devices, such as manufactured by Instron. Alternatively, other test methods known to a practitioner of the art may be employed. The test assay for determining whether hair has been “rejuvenated” for the present invention is the following. Individual scalp hairs were cemented into the ends of glass capillary tubes such that several centimeters of the shaft protruded from the end. This hair was then trimmed to extend 18 mm from the end of the tube. The unit was then inserted into a micropipette positioner for study. Evaluation consisted of bending the hair by applying a specified force and displacement. Thus, this determination of stress vs strain of bending assessed elasticity, compressibility, and shear of each hair shaft. Each hair served as its own control, with baseline and post-treatment properties assessed and directly compared. A 1 mm thick plate with a 0.5 mm diameter hole drilled through was attached to the surface of an isometric strain gauge. To perform each measurement, the capillary tube was placed over the fenestrated plate and the hair end inserted into the hole in the plate without touching the strain gauge. The hair was then straightened, if necessary, such that its axis formed a 10 degree angle with respect to vertical. Once positioned, the hair was then lowered onto the surface of the strain gauge. The force required to bend each hair a specified distance was determined over a wide range of displacements. From the stress vs strain relationships thus derived, the work to bend each hair under different treatment regimens can be directly compared. For purposes of the present invention, the term “rejuvenated” hair means an improvement of at least 20% in the measured value of the treated hair, toward the values seen in young, undamaged hair (i.e. healthy). […] The stress versus strain relationship was determined as a baseline. […]

The nature of assay [2]: Tendon rejuvenation: elasticity in a materials testing device before and after ex vivo exposure. The settings on record: FIG. 2. Details: species or system hen. On the procedure:
The distensibility (i.e, elasticity, rigidity, shear, tensile strength, compression, etc.) of hair, nails, tendons, etc. may be determined using widely available commercial devices, such as manufactured by Instron. Alternatively, other test methods known to a practitioner of the art may be employed. The elasticity of the Achilles tendon of a one year old hen was determined in a materials testing device before and after ex vivo exposure to 3-(2-phenyl-2-oxoethyl)-4,5-dimethylthiazolium chloride (1 mM) in a bath for 15 minutes.

Assay [3] in a line: Tissue diffusion coefficient rejuvenation of ex vivo donor lungs, tested in the recipient patient after transplantation. Particulars: ex vivo organ flushed once with cooled preservation solution containing 0.01 to 1.0 mM; testing in recipient patient. On the procedure: The following is an illustration of a methodology that can be used to rejuvenate ex vivo and prior to transplantation to a recipient patient the lungs removed from a donor cadaver aged 21 years or more. […] Individuals' deformability and diffusion characteristics can be characterized by using the standard methodology of determination of the lung diffusing capacity for carbon monoxide (e.g., Chang et al., Chest (1992) 102:139-42). The diffusing capacity is measured in the supine patient using a single breath of carbon monoxide (0.3%) held for ten seconds using a CPI 5000 IV (Gould Instruments, Houston, Tex.), corrected for alveolar volume. A young subject (20 years old) will have approximately a 40% higher diffusion coefficient for carbon monoxide compared to older subjects (60 yrs). The ex vivo organ is flushed once with a cooled preservation solution containing 3-(2-phenyl-2-oxoethyl)-4,5-dimethylthiazolium chloride at a concentration of 0.01 to 1.0 mM.

Entries after “also recorded” stand apart in the source; their conditions may differ.

`Cc1sc[n+](CC(=O)c2ccccc2)c1C.[Cl-]` [3-(2-phenyl-2-oxoethyl)-4,5-dimethylthiazolium chloride]: the distensibility of hair entry in assay [1] (1 mM, 15 minutes, after treatment vs baseline) is given as “increased distensibility”. Moreover, the stiffness of hair entry in assay [1] (after treatment) was “decreases the stiffness”. Also, in assay [1] (hair immersed in 1 mM solution for 15 minutes, stress greater than 0.08), the “reduction of resulting strain versus before treatment” value is “about 50%”. Further, the distensibility of tendon result in assay [2] (1 mM bath for 15 minutes ex vivo, post-treatment) was “improved; also recorded: significantly increased”. The “strain of treated tendon as percent of the strain of the untreated tendon” value in assay [2] (1 mM bath for 15 minutes ex vivo, stress greater than 0.04) is on record as “about 50%”. For the same compound, in assay [2] (after treatment), the “tensile strength of tendon” value was “improved”. Also, in assay [3], the “deformability of transplanted lungs” value is recorded as “improved” and the “diffusional capacity of transplanted lungs” value is recorded as “improved”.

(Values after patent US7384625B2, “Method and composition for rejuvenating hair, nails, tissues, cells and organs by ex-vivo or immersive treatment” (Farington Pharmaceuticals, LLC, priority 2001, dated 2008).)
